The test system of this assay is CD2F1 mice, L1210 leukemia ip, survival T/C. As to the kind of experiment: NCI In Vivo Anticancer Drug Screen. Data for tumor model L1210 Leukemia (intraperitoneal) in CD2F1 (CDF1) mice. The note with it: higher = longer survival. The essentials: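 Ratio T/C, where T is the treated-group value and C the vehicle-dosed control value, from mice implanted with a transplantable tumor.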

The mark [1] stands for this setting: endpoint: mean survival time, dose: 25.0 mg/kg/injection, schedule: Q01DX009 (ip), vehicle: saline with Tween-80.
Setting [2] is: endpoint: mean survival time, dose: 50.0 mg/kg/injection, schedule: Q01DX009 (ip), vehicle: saline with Tween-80.
Where [3] appears, read: endpoint: mean survival time, dose: 100.0 mg/kg/injection, schedule: Q01DX001 (ip), vehicle: saline with Tween-80.
Setting [4] is: endpoint: mean survival time, dose: 200.0 mg/kg/injection, schedule: Q01DX001 (ip), vehicle: saline with Tween-80.
[5] abbreviates: endpoint: mean survival time, dose: 100.0 mg/kg/injection, schedule: Q04DX003 (ip), vehicle: saline with Tween-80.
The mark [6] stands for this setting: endpoint: mean survival time, dose: 12.5 mg/kg/injection, schedule: Q01DX009 (ip), vehicle: saline with Tween-80.

The results in this text go back to PubChem BioAssay AID256 (DTP/NCI, 2004).

Where “and” joins values, the source holds several entries; their conditions need not be identical. Equal values may be shown once. Inconclusive results and toxic doses are left out.

For `NC(=S)c1ccc(OCCCc2ccccc2)cc1`, the T/C reads like this: under setting [1], 95 % of control; under setting [2], 95 % of control.

Turning to `COC(=O)C1=NNC(C(=O)OC)=C(c2ccccc2)C(c2ccccc2)=N1`, the T/C is 95 % of control (endpoint: mean survival time, dose: 12.5 mg/kg/injection, schedule: Q01DX009 (ip), vehicle: Klucel (hydroxypropylcellulose) (HPC)); 91 % of control (endpoint: mean survival time, dose: 25.0 mg/kg/injection, schedule: Q01DX009 (ip), vehicle: Klucel (hydroxypropylcellulose) (HPC)); 98 % of control (endpoint: mean survival time, dose: 50.0 mg/kg/injection, schedule: Q01DX009 (ip), vehicle: Klucel (hydroxypropylcellulose) (HPC)); 101 % of control (endpoint: mean survival time, dose: 100.0 mg/kg/injection, schedule: Q01DX009 (ip), vehicle: Klucel (hydroxypropylcellulose) (HPC)); 109 % of control (endpoint: mean survival time, dose: 200.0 mg/kg/injection, schedule: Q01DX009 (ip), vehicle: Klucel (hydroxypropylcellulose) (HPC)); 114 % of control (endpoint: mean survival time, dose: 400.0 mg/kg/injection, schedule: Q01DX009 (ip), vehicle: Klucel (hydroxypropylcellulose) (HPC)).

With `O=C(O)c1cc(-c2ccccc2)nc2ccccc12`, the T/C runs as follows: under setting [3], 103 % of control; under setting [4], 97 % of control; (endpoint: mean survival time, dose: 400.0 mg/kg/injection, schedule: Q01DX001 (ip), vehicle: saline with Tween-80) 102 % of control.

`O=[N+]([O-])c1ccc2c(c1)C(=Nc1ccc3ccccc3c1)c1ccccc1-2`: the T/C was 98 % of control under setting [5] and 86 % of control (endpoint: mean survival time, dose: 200.0 mg/kg/injection, schedule: Q04DX003 (ip), vehicle: saline with Tween-80).

Take `O=C(O)CN(CC(=O)O)Cc1ccccc1`: the T/C runs as follows: (endpoint: mean survival time, dose: 100.0 mg/kg/injection, schedule: Q01DX001 (ip), vehicle: saline) 103 % of control; (endpoint: mean survival time, dose: 200.0 mg/kg/injection, schedule: Q01DX001 (ip), vehicle: saline) 103 % of control; (endpoint: mean survival time, dose: 400.0 mg/kg/injection, schedule: Q01DX001 (ip), vehicle: saline) 103 % of control.

`FC(F)(F)/C([S-])=C(/[S-])C(F)(F)F.[Fe].[c-]1[c-][c-][cH-][c-]1`: the T/C is 105 % of control (endpoint: mean survival time, dose: 75.0 mg/kg/injection, schedule: Q01DX001 (ip), vehicle: other) and 100 % of control (endpoint: mean survival time, dose: 150.0 mg/kg/injection, schedule: Q01DX001 (ip), vehicle: other).

For the compound `CN(C)C(=NC#N)N(C)C`, the T/C runs as follows: (endpoint: mean survival time, dose: 100.0 mg/kg/injection, schedule: Q01DX009 (ip), vehicle: saline) 102 % of control; (endpoint: mean survival time, dose: 100.0 mg/kg/injection, schedule: Q04DX003 (ip), vehicle: saline) 100 % of control; (endpoint: mean survival time, dose: 200.0 mg/kg/injection, schedule: Q01DX009 (ip), vehicle: saline) 96 % of control; (endpoint: mean survival time, dose: 200.0 mg/kg/injection, schedule: Q04DX003 (ip), vehicle: saline) 95 % of control; (endpoint: mean survival time, dose: 400.0 mg/kg/injection, schedule: Q01DX009 (ip), vehicle: saline) 96 % of control; (endpoint: mean survival time, dose: 400.0 mg/kg/injection, schedule: Q04DX003 (ip), vehicle: saline) 97 % of control.

Regarding `Cc1ccc(Cl)cc1NC(=S)NC(=O)COc1ccccc1`, the T/C by setting is: under setting [6], 98 % of control and 106 % of control; under setting [1], 98 % of control; (endpoint: mean survival time, dose: 25.0 mg/kg/injection, schedule: Q04DX003 (ip), vehicle: saline with Tween-80) 100 % of control; (endpoint: mean survival time, dose: 50.0 mg/kg/injection, schedule: Q01DX001 (ip), vehicle: saline with Tween-80) 97 % of control; (endpoint: mean survival time, dose: 50.0 mg/kg/injection, schedule: Q04DX003 (ip), vehicle: saline with Tween-80) 96 % of control; under setting [3], 89 % of control. Also, the T/C is 87 % of control (endpoint: mean survival time, dose: 100.0 mg/kg/injection, schedule: Q04DX002 (ip), vehicle: saline with Tween-80); 90 % of control under setting [5]; 88 % of control under setting [4]; 98 % of control (endpoint: mean survival time, dose: 200.0 mg/kg/injection, schedule: Q04DX002 (ip), vehicle: saline with Tween-80).

For `CCCn1c2ccccc2c2ccccc21`, the T/C was 91 % of control (endpoint: mean survival time, dose: 100.0 mg/kg/injection, schedule: Q04DX003 (ip), vehicle: Klucel (hydroxypropylcellulose) (HPC)); 105 % of control (endpoint: mean survival time, dose: 200.0 mg/kg/injection, schedule: Q04DX003 (ip), vehicle: Klucel (hydroxypropylcellulose) (HPC)); 96 % of control (endpoint: mean survival time, dose: 400.0 mg/kg/injection, schedule: Q04DX003 (ip), vehicle: Klucel (hydroxypropylcellulose) (HPC)).

In the case of `O=NN(CCCl)C(=S)NCCCl`, the T/C was 113 % of control (endpoint: mean survival time, dose: 1.87 mg/kg/injection, schedule: Q01DX001 (ip), vehicle: distilled water + Tween-80); 115 % of control (endpoint: mean survival time, dose: 3.75 mg/kg/injection, schedule: Q01DX001 (ip), vehicle: distilled water + Tween-80); 159 % of control and 215 % of control (endpoint: mean survival time, dose: 15.0 mg/kg/injection, schedule: Q01DX001 (ip), vehicle: distilled water + Tween-80); 318 % of control (endpoint: mean survival time, dose: 30.0 mg/kg/injection, schedule: Q01DX001 (ip), vehicle: distilled water + Tween-80).

With `O=C(O[Si](Cc1ccccc1)(Cc1ccccc1)Cc1ccccc1)N(CCCl)CCCl`, the T/C runs as follows: (endpoint: mean survival time, dose: 6.25 mg/kg/injection, schedule: Q01DX009 (ip), vehicle: distilled water + Tween-80) 109 % of control; (endpoint: mean survival time, dose: 6.25 mg/kg/injection, schedule: Q01DX009 (ip), vehicle: saline with Tween-80) 96 % of control; under setting [6], 103 % of control; (endpoint: mean survival time, dose: 25.0 mg/kg/injection, schedule: Q01DX009 (ip), vehicle: distilled water + Tween-80) 117 % of control; under setting [1], 111 % of control; under setting [2], 121 % of control. For the same compound, the T/C by setting is: (endpoint: mean survival time, dose: 100.0 mg/kg/injection, schedule: Q01DX009 (ip), vehicle: saline with Tween-80) 123 % of control; (endpoint: mean survival time, dose: 200.0 mg/kg/injection, schedule: Q01DX009 (ip), vehicle: distilled water + Tween-80) 91 % of control; (endpoint: mean survival time, dose: 200.0 mg/kg/injection, schedule: Q01DX009 (ip), vehicle: saline with Tween-80) 152 % of control.

`O=C(Nc1ccccc1)c1c(O)[nH]c(=S)[nH]c1=O`: the T/C was 124 % of control (endpoint: median survival time, dose: 6.2 mg/kg/injection, schedule: Q01DX005 (iv), vehicle: other); 124 % of control (endpoint: median survival time, dose: 6.2 mg/kg/injection, schedule: Q01DX005 (iv), vehicle: saline with Tween-80); 116 % of control (endpoint: median survival time, dose: 6.25 mg/kg/injection, schedule: Q01DX009 (ip), vehicle: saline with Tween-80); 124 % of control (endpoint: median survival time, dose: 12.5 mg/kg/injection, schedule: Q01DX005 (iv), vehicle: other); 124 % of control (endpoint: median survival time, dose: 12.5 mg/kg/injection, schedule: Q01DX005 (iv), vehicle: saline with Tween-80); 119 % of control (endpoint: median survival time, dose: 20.0 mg/kg/injection, schedule: Q01DX009 (ip), vehicle: saline with Tween-80). Also, the T/C reads like this: (endpoint: median survival time, dose: 25.0 mg/kg/injection, schedule: Q01DX005 (iv), vehicle: other) 158 % of control; (endpoint: median survival time, dose: 25.0 mg/kg/injection, schedule: Q01DX009 (ip), vehicle: other) 197 % of control; (endpoint: median survival time, dose: 25.0 mg/kg/injection, schedule: Q01DX009 (ip), vehicle: water) 124 % of control; (endpoint: median survival time, dose: 30.0 mg/kg/injection, schedule: Q01DX009 (ip), vehicle: saline with Tween-80) 162 % of control; (endpoint: median survival time, dose: 44.0 mg/kg/injection, schedule: Q01DX009 (ip), vehicle: saline with Tween-80) 157 % of control and 168 % of control; (endpoint: median survival time, dose: 50.0 mg/kg/injection, schedule: Q01DX009 (ip), vehicle: other) 114 % of control. Also, the T/C was 204 % of control (endpoint: median survival time, dose: 50.0 mg/kg/injection, schedule: Q01DX009 (ip), vehicle: water); 182 % of control and 192 % of control (endpoint: median survival time, dose: 67.0 mg/kg/injection, schedule: Q01DX009 (ip), vehicle: saline with Tween-80).

On to `Cn1c(=O)c2c(nc(N3CCOCC3)n2CCCNCC(O)c2ccc(O)cc2)n(C)c1=O` (configuration not stated), for which the T/C runs as follows: (endpoint: mean survival time, dose: 12.5 mg/kg/injection, schedule: Q01DX005 (ip), vehicle: water) 102 % of control; (endpoint: mean survival time, dose: 25.0 mg/kg/injection, schedule: Q01DX005 (ip), vehicle: water) 104 % of control; (endpoint: mean survival time, dose: 50.0 mg/kg/injection, schedule: Q01DX005 (ip), vehicle: water) 100 % of control; (endpoint: mean survival time, dose: 100.0 mg/kg/injection, schedule: Q01DX005 (ip), vehicle: water) 98 % of control; (endpoint: mean survival time, dose: 200.0 mg/kg/injection, schedule: Q01DX005 (ip), vehicle: water) 104 % of control.

In the case of `O=C(Nc1cccc(Cl)c1)c1ccc(C(=O)Nc2cccc(Cl)c2)cc1`, the T/C is 100 % of control (endpoint: mean survival time, dose: 75.0 mg/kg/injection, schedule: Q01DX001 (ip), vehicle: saline); 98 % of control (endpoint: mean survival time, dose: 150.0 mg/kg/injection, schedule: Q01DX001 (ip), vehicle: saline); 102 % of control (endpoint: mean survival time, dose: 300.0 mg/kg/injection, schedule: Q01DX001 (ip), vehicle: saline).
